Structures can show the parent of a compound that is named as a salt. Where two headings read alike, the source gives them in different places. Blank lines part the entries; values can stand above or below the molecule they belong to.
Experiments:
And‐1 [1] = molecular target: T1, And‐1 (Homo sapiens, UniProt O75717); experiment: And‐1 luciferase reporter assay (qHTS of LOPAC); type: cell-based
T1 construct: expressed in transfected cells
T1 sequence (O75717 1-1129): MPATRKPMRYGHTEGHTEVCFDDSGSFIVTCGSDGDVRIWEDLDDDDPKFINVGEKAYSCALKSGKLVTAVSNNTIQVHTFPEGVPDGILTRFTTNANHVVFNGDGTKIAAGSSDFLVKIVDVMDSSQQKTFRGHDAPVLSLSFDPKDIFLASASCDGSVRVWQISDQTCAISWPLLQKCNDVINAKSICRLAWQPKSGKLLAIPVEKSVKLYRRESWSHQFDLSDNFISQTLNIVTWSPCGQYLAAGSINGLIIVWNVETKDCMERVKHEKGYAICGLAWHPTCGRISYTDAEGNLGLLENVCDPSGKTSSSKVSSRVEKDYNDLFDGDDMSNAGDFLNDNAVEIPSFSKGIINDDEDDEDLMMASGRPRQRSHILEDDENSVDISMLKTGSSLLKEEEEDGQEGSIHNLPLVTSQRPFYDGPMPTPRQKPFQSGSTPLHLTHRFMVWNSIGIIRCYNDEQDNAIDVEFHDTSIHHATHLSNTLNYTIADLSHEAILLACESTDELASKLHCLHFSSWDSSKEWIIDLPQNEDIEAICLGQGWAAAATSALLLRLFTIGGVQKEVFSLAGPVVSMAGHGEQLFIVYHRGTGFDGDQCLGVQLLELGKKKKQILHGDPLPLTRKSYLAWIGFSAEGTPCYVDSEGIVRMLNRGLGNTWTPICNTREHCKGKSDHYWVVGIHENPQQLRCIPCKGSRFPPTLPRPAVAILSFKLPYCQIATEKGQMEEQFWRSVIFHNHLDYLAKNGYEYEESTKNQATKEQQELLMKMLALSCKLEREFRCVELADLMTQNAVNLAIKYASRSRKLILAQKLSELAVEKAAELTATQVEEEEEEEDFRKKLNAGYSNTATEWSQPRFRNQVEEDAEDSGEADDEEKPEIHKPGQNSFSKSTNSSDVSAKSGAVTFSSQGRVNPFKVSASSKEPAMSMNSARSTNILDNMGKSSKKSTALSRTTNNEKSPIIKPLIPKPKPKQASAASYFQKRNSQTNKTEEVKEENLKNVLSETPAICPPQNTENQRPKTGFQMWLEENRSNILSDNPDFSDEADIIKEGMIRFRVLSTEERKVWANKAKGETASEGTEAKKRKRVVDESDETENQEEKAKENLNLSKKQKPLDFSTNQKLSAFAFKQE
Protocol: And‐1‐Luc reporter HEK293 cells were dispensed at 2000 cells/5 μl/well in tissue culture treated white wall/solid bottom 1536‐well plates (Greiner Bio‐One North America, Monroe, NC, USA) using a Thermo Scientific Multidrop Combi (ThermoFisher Scientific, Inc.). After the cells were incubated in assay plates at 37°C for 5 h, 23 nl of compounds (LOPAC) was transferred into the assay plates using a Wako Pintool station (Wako Automation, San Diego, CA, USA). The assay plates were incubated at 37°C for 48 h, followed by the addition of 5 μl ONE‐Glo luciferase reagent (Promega, Madison, WI, USA) using a Flying Reagent Dispenser (Aurora Discovery, Carlsbad, CA, USA). After 30 min of incubation at room temperature, the luminescence intensity of the assay plates was quantified using a ViewLux plate reader (PerkinElmer, Shelton, CT, USA).
(§1) To evaluate whether And‐1 is required for tumor survival, we examined the dependence of a broad range of tumor cells on And‐1 by using dependency score analysis from DepMap (https://depmap.org/portal/). […] To identify And‐1 specific pharmacologic inhibitor, we established an HTS assay to identify small molecules that can inhibit And‐1 by inducing its degradation. To this end, we first established two stable cell lines, HEK293T‐And‐1‐Luc expressing And‐1 protein fused to a luciferase reporter gene, and HEK293T‐Luc expressing luciferase only (Figure 1B). HEK293T‐And‐1‐Luc cells allow us to monitor And‐1 protein levels by measuring luciferase activity in a high‐throughput manner. Using these cell lines, we conducted a screening for And‐1 inhibitors against a LOPAC small molecule library by using a quantitative HTS (qHTS) as we described previously.[46]

IGROV1 cells [2] = experiment: Immunofluorescence of CtIP recruitment to micro-irradiation induced DSB sites; type: cell-based, human; conditions: 1 µM
Protocol: (§2) Supplementary Figure S1. Identification of novel And-1 inhibitors. […]
siAnd-1. S: S phase. (D) Immunofluorescence assay to detect CtIP and γH2AX foci formation after CH3 […]
IGROV1 cells treated with DMSO, 1 […]
to immunostain γH2AX and CtIP. For each experiment, 50 cells were counted and the percentage of cells with co-localization of γH2AX and CtIP foci was determined. Data represent means ± SEM from three independent experiments. (E) HR reporter assay to detect HR repair efficiency in cells treated with CH3. […]

IGROV1 CR cells = experiment: SRB cell viability assay, combination with cisplatin; type: cell-based, human; conditions: by combination index (CI < 1 synergism)
Protocol: (§3) The assay was as previously described.[45]
Synergy of each combination was indicated as combination index (CI) values. […] (C) Tumors of IGROV1 CR xenograft treated with control (vehicle), cisplatin (8 mg/kg/day intraperitoneally), CH3 (20 mg/kg/3days intraperitoneally), or a combination of CH3 and cisplatin for 3 weeks. Ruler scale is in centimeters. (D) Growth curves of IGROV1 CR xenografts. […] (E) IHC staining against And‐1 antibodies of tumor samples from four treated groups of mice. Scale bar: 50 μm. […] Ruler scale is in centimeters. (G) Growth curves of IGROV1 CR xenografts. […] (H) IHC staining against And‐1 antibodies of tumor samples from four treated groups of mice. Scale bar: 50 μm.

IGROV1 cells [3] = experiment: Flow cytometry cell cycle analysis (propidium iodide); type: cell-based, human; conditions: 1 µM, FACS
Description: And‐1 is involved in DNA replication in the S‐phase and is required for the S‐phase progression.[15] We assumed that And‐1 inhibitors should be able to inhibit DNA replication by targeting And‐1.
as §2
Molecular weight of each compound was indicated. (C) Flow cytometry

IGROV1 CR xenografts = experiment: Cisplatin resistant IGROV1 CR xenograft in nude mice; type: in vivo, mouse
And‐1 [4] = molecular target: T1, And‐1; experiment: Immunoblot of And‐1 expression in IGROV1 cells; type: cell-based; conditions: read-out: IC50, And‐1 expression
Description: as §3, §1
(A) Dependency score of WDHD1/And‐1 analyzed by DepMap. […] (B) Establishment of HEK293T‐And‐1‐Luc and HEK293T‐Luc cells for the high‐throughput screen (HTS). (C) Schematic diagram of quantitative HTS (qHTS) for And‐1 inhibitors. (D) Immunoblot analyses to detect And‐1 expression in IGROV1 cells treated with resveratrol at indicated concentrations. (E) Chemical structures of resveratrol and its three analogs as indicated. (F) Left, immunoblot analyses to detect And‐1 expression in IGROV1 cells treated with And‐1 inhibitors at the indicated concentration. Right, quantification of And‐1 expression shown in the left panel.

[5] = set-up: method as in PMID 15779070; conditions: due to rapid metabolism; cited from earlier work
[6] = reduction of luciferase activity, qHTS, column 1, read-out: IC50 (uM) 1
[7] = reduction of luciferase activity, qHTS, column 2
[8] = reduction of luciferase activity, qHTS, average of 1 and 2, read-out: IC50 (uM) average
[9] = reduction of luciferase activity, qHTS, column 2, read-out: IC50 (uM) 2

Compound: CC[C@@]1(O)C(=O)OCc2c1cc1n(c2=O)Cc2cc3ccccc3nc2-1 [(S)-(+)-Camptothecin]
IC50 (And‐1 [1]; [6]): 0.73 µM
IC50 (uM) 2 (And‐1 [1]; [7]): inactive

Compound: CC[n+]1c(/C=C/C=C2/N(C)c3ccccc3C2(C)C)sc2ccccc21 [AC-93253 iodide]
IC50 (And‐1 [1]; [8]): 0.76 µM
IC50 (And‐1 [1]; [6]): 1.09 µM
IC50 (And‐1 [1]; [9]): 0.44 µM

Compound: CNc1ccc2oc(C[C@H]3O[C@@]4(CC[C@H]3C)O[C@H]([C@H](C)C(=O)c3ccc[nH]3)[C@H](C)C[C@H]4C)nc2c1C(=O)O [Calcimycin]
DC50 (And‐1 [1]; [8]): 8.32 µM
DC50 (And‐1 [1]; [6]): 6.1 µM
DC50 (And‐1 [1]; [9]): 10.5 µM

Compound: c1ccc2c(c1)[I+]c1ccccc1-2 [Diphenyleneiodonium chloride]
DC50 (And‐1 [1]; read-out: IC50 (uM) 1): 0.84 µM
DC50 (And‐1 [1]; read-out: IC50 (uM) 2): 0.03 µM
DC50 (And‐1 [1]; read-out: IC50 (uM) average): 0.43 µM

Compound: Nc1ccn([C@@H]2O[C@H](CO)[C@@H](O)C2(F)F)c(=O)n1 [Gemcitabine hydrochloride]
DC50 (And‐1 [1]; [6]): 0.02 µM
IC50 (uM) 2 (And‐1 [1]; [7]): inactive

Compound: O=C1C(SCCO)=C(SCCO)C(=O)c2ccccc21 [NSC 95397]
IC50 (And‐1 [1]; [8]): 9.42 µM
IC50 (And‐1 [1]; [6]): 11.2 µM
IC50 (And‐1 [1]; [9]): 7.68 µM

Compound: CCN(CC)CCOc1ccc(Nc2ncc3cc(-c4c(Cl)cccc4Cl)c(=O)n(C)c3n2)cc1 [PD-166285 hydrate]
IC50 (And‐1 [1]; [8]): 3.03 µM
IC50 (And‐1 [1]; [6]): 3.33 µM
IC50 (And‐1 [1]; [9]): 2.73 µM

Compound: C/C=C(/C)C(=O)O[C@H]1C(C)=C2[C@H]([C@@H]1OC(=O)CCCCCCC)[C@@](C)(OC(C)=O)C[C@H](OC(=O)CCC)[C@@]1(O)[C@H]2OC(=O)[C@@]1(C)O [Thapsigargin]
DC50 (And‐1 [1]; [8]): 6.95 µM
DC50 (And‐1 [1]; [6]): 13.3 µM
DC50 (And‐1 [1]; [9]): 0.63 µM

Second part, led by results:

DC50 (And‐1 [1]; [6]): 1.67 µM
IC50 (uM) 2 (And‐1 [1]; [7]): inactive
Compound: COc1cc2c(cc1O)CC[C@@H]1[C@@H]2CC[C@]2(C)[C@@H](O)CC[C@@H]12 [2-methoxyestradiol]

DC50 (And‐1 [4]): 0.32 µM
Compound: Cc1c(-c2ccc(O)cc2)n(Cc2ccc(OCCN3CCCCCC3)cc2)c2ccc(O)cc12 [BZA, bazedoxifene acetate]
recruitment of CtIP to DSB sites induced by micro‐irradiation (IGROV1 cells [2]): significantly decreased
synergy with cisplatin to inhibit cell proliferation (IGROV1 CR cells): significant synergy with cisplatin
percentage of cells in the S‐phase (IGROV1 cells [3]): reduced the percentage of cells in the S‐phase
expression of And‐1 in tumours (IHC) (IGROV1 CR xenografts): suppressed expression of And‐1 in tumours
resistant tumour growth, combination with cisplatin vs cisplatin alone (IGROV1 CR xenografts; cisplatin 8 mg/kg + CH3 20 mg/kg or BZA 2 mg/kg, intraperitoneal, 3 weeks): significantly reduced resistant tumour growth

DC50 (And‐1 [1]; [8]): 21.1 µM
DC50 (And‐1 [1]; [6]): 22.9 µM
DC50 (And‐1 [1]; [9]): 19.3 µM
Compound: COCCOC(=O)C1=C(C)NC(C)=C(C(=O)OC/C=C/c2ccccc2)C1c1cccc([N+](=O)[O-])c1 (centres unmarked) [Cilnidipine]

IC50 (And‐1 [1]; [8]): 21.3 µM
IC50 (And‐1 [1]; [6]): 18.8 µM
IC50 (And‐1 [1]; [9]): 23.8 µM
Compound: C=CCc1cccc(/C=N/NC(=O)CN2CCN(Cc3ccccc3)CC2)c1O [PAC-1]

DC50 (And‐1 [1]; HEK293T‐And‐1‐Luc cells, qHTS, read-out: IC50, reduction of And‐1 levels (screening)): 18.9 µM
DC50 (And‐1 [1]; [8]): 18.9 µM
DC50 (And‐1 [1]; [6]): 14.9 µM
DC50 (And‐1 [1]; [9]): 22.9 µM
DC50 (And‐1 [4]): 16.7 µM
Compound: Oc1ccc(/C=C/c2cc(O)cc(O)c2)cc1 [Resveratrol, 3,5,4′‐trihydroxy‐trans‐stilbene]
oral bioavailability [5]: low oral bioavailability

IC50 (And‐1 [1]; [6]): 0.61 µM
IC50 (uM) 2 (And‐1 [1]; [7]): inactive
Compound: CC[C@@]1(O)C(=O)OCc2c1cc1n(c2=O)Cc2cc3c(CN(C)C)c(O)ccc3nc2-1 [Topotecan hydrochloride hydrate]
